Measured values published in article PMC8038054, “Bis-3-Chloropiperidines Targeting TAR RNA as A Novel Strategy to Impair the HIV-1 Nucleocapsid Protein” (Molecules, 2021).

Tests used:
TAR RNA [1] = test: Electrophoretic Mobility Shift Assay (EMSA), non-denaturing PAGE; assay type: binding, HIV-1; conditions: 1 μM folded TAR, 0-50 μM compound, 2 h 37 °C, BPE buffer pH 7.4
Method: To further evaluate the interaction of B-CePs to TAR RNA, Electrophoretic Mobility Shift Assay (EMSA) was used as a simple tool to visualize the putative interaction of compound 1 with TAR. The RNA was folded in its hairpin secondary structure, incubated for 2 h at 37 °C with increasing concentrations of compound 1 (0, 1, 5, 10, 25, 35, 50 μM), and the reaction products were resolved by polyacrylamide gel electrophoresis (PAGE). Figure 3 provides the results obtained in non-denaturing PAGE.
Figure 3 Non-denaturing polyacrylamide gel electrophoresis (PAGE) (PAA 12%) in TBE 1× showing the concentration-dependence of the interaction of B-CeP 1 with TAR. Folded TAR hairpin 1 μM was incubated with increasing concentrations of compound (0, 1, 5, 10, 25, 35, 50 μM) for 2 h at 37 °C with a BPE buffer (pH 7.4).
Electrophoretic Mobility Shift Assay (EMSA) was used to assess the ability of compound 1 to directly interact to TAR RNA construct. Prior to incubation with compound, TAR RNA was heated to 95 °C for 5 min and then ice-cooled in order to assume the proper hairpin structure. TAR RNA construct (1 μM) was then incubated with increasing concentrations (from 0 to 50 μM) of B-CeP 1, at 37 °C for 2 h in 1× BPE buffer (pH 7.4). […] Fluorescence in gel system was detected on a Geliance 600 Imaging System (PerkinElmer, Waltham, MA, USA).

TAR RNA [2] = test: ESI-MS of reaction mixtures of B-CePs with TAR; assay type: binding, HIV-1
Description: To elucidate the molecular details of the products observed by PAGE, we further characterized the outcome of the reaction with TAR by electrospray ionization-mass spectrometry (ESI-MS). A preliminary determination was accomplished on the individual TAR construct, and a representative ESI-MS spectrum is provided in Figure 4A. Only the region containing the 5-charge state is shown for the sake of clarity. The detected species labelled [TAR-5H]^5− in Figure 4A afforded an experimental mass of 9286.25 Da, which matches the monoisotopic value of 9286.24 Da calculated from the RNA sequence very closely (Table 1). Successively, we performed the experiment by reacting compound 1 with TAR at 1 μM. After 2 h of incubation, at 37 °C, the reaction mixture was submitted to ethanol precipitation to achieve quenching and desalting, which enabled a direct infusion ESI-MS analysis. […] In the presence of nucleic acids, aziridinium preferentially attacks N7 of guanines on the substrate, forming different types of adduct (Scheme S1 in Supplementary Materials).^22 Analyzing a new species in Figure 4B, their masses matched those of products generated by either mono- or bis-alkylation reactions. The species TAR + 1B, displaying a mass of 9548.49 u, corresponded to bi-functional adducts formed by the reaction of both 3-chloropiperidine reactive moieties with the RNA strand (labelled [TAR + 1B − 5H]^5− in the inset in Figure 4B). Differently, TAR + 1M species with a mass of 9566.49 u was assigned to mono-functional adducts, in which only one of the 3-chloropiperidines reacted with the substrate, whereas the other was hydrolyzed to 3-hydroxyl by the aqueous environment (labelled [TAR + 1M − 5H]^5− in the inset in Figure 4B). Table 1 summarizes the experimental and calculated masses of the new products and provides the assignment of the various species detected in Figure 4B.
Figure 4 Representative electrospray-ionization mass spectrometry (ESI-MS) spectra of reaction mixtures obtained by incubating TAR (1 μM) with increasing B-CeP 1 (A:0, B:1, C:10, D:50 μM) at 37 °C for 2 h in a BPE buffer (pH 7.4). The spectra B–D show the concentration-dependent reactions induced by B-CeP 1 on TAR. Greater stoichiometries corresponding to combinations of mono- and bi-functional adducts, were detected and indicated in orange in the figure. The spectra were recorded in 150 mM ammonium acetate. Lower intensity signals near free/adducted species consist of typical sodium and ammonium adducts. Only region containing the 5-charge state is shown for the sake of clarity.
The results shown in Figure 4C,D show the reaction products obtained, further increasing the concentration of compound 1, with 1 μM TAR solution incubated with 10 and 50 μM of B-CeP 1, respectively. […]

[3] = system: recombinant full-length HIV-1 NC; test: High-throughput screening (HTS): inhibition of NC-mediated melting of TAR RNA hairpin; assay type: biochemical; conditions: 0.1 μM TAR, 0.8 μM NC, compound pre-incubated 37 °C 2 h; mean of three experiments; read-out: IC50, inhibition of NC-mediated melting of individual TAR RNA hairpin
Method: This assay is based on the doubly labeled TAR construct used above in the FQA experiments and is extensively employed to screen for inhibitors of NC melting activity. After preliminary controls to ensure the absence of direct quenching activity by the compounds under investigation, their ability to inhibit TAR RNA melting was evaluated in the presence of recombinant full-length HIV-1 NC. By adding increasing amounts of B-CePs, we determined the concentration of each compound that induced a 50% reduction in the destabilizing activity of NC (i.e., IC50) on TAR.
High-throughput screening (HTS) was performed to identify the inhibitors of NC chaperone activity on TAR. We used a VictorIII (PerkinElmer) microplate reader with 485 and 535 nm as the excitation and emission wavelengths. The TAR RNA hairpin was formed by snap cooling in the 1× BPE buffer, as described above. A 1 μM aliquot of TAR, which bore 5′-FAM and 3′-DAB modifications, was folded in 1× BPE buffer. The samples were then diluted to 0.1 μM in 1× BPE buffer. Increasing concentrations of compound (0, 0.1, 0.5, 1, 5, 10, 50, 100 μM final) were added to each sample and incubated at 37 °C for 2 h before introducing NC to a final concentration of 0.8 μM (for a 1:8 oligo to NC molar ratio). The plate was immediately read at room temperature three times with 1 min intervals, unless differently specified. The experimental data were fitted as reported earlier to enable calculation of the respective IC50 value.16 Each experiment was performed in triplicate to calculate an average and standard deviation.

[4] = cited from earlier work
TAR RNA [5] = test: Fluorescence quenching assay (FQA): thermal melting of TAR RNA hairpin; assay type: binding, HIV-1; conditions: 10 μM compound, 1 μM TAR, 37 °C 2 h, BPE buffer
Description: A first insight into the putative interaction of B-CePs with RNA was offered by the investigation of the ability of the selected compounds to stabilize the TAR hairpin structure. We employed fluorescence quenching assays (FQA) to measure the ability of each B-CeP to modify the thermal denaturation profile of the TAR construct shown in Figure 1A, which was functionalized at both termini with a fluorophore-quencher couple. In this way, thermal melting of the structure can be assessed from the intensity of the detected fluorescence signal. The melting profile of TAR in the presence of increasing concentrations of each compound allowed an evaluation of the shift in melting temperature (ΔTm) from the reference value, which was determined in the absence of compound. Sample solutions contained 1 μM of RNA substrate and 10, 50 or 100 μM of each B-CePs compound. Figure 2 summarizes the values of ΔTm obtained by adding increasing concentrations of B-CePs 1–5. […]
The ability of the tested compounds to stabilize the TAR RNA structure was measured by the increase in the melting temperature of the oligoribonucleotide in the presence of different concentrations of each compound. […] Fluorescence emission of FAM was read by using a Light Cycler 480 II (Roche, Basel, CH) with emission at λ = 510 nm and correlated to the melting temperature of the oligoribonucleotide. […]

| SMILES | IC50 [3] | Tm increase of TAR RNA (stabilization effect) (TAR RNA [5]) | further results |
| --- | --- | --- | --- |
| CC1(C)CC(Cl)CN(CCCN2CC(Cl)CC(C)(C)C2)C1 (centres unmarked) [Compound 1] | 4.75 ± 0.15 µM |  | Concentration at which binding events (band shift) reach a plateau (TAR RNA [1]): 25 µM; Binding stoichiometries on TAR detected by ESI-MS (TAR RNA [2]; 1 μM TAR with 10 and 50 μM compound): up to five equivalents; Products of the reaction with TAR detected by ESI-MS (TAR RNA [2]; 1 μM TAR, 37 °C 2 h, BPE buffer): covalent adducts; Fragmentation of the oligoribonucleotide chain of TAR RNA (TAR RNA [2]; ESI spectrometry and gel electrophoresis): not detected; Cytotoxicity ([4]; ref [22],[25]): low cytotoxicity |
| CC1(C)CC(Cl)CN(CCCCCN2CC(Cl)CC(C)(C)C2)C1 (centres unmarked) [Compound 2] | 2.75 ± 0.7 µM |  | Relative reactivity towards the TAR construct (comparison of ESI-MS spectra) (TAR RNA [2]; same B-CeP/TAR molar ratio (10 μM compound, 1 μM TAR)): most reactive; Effect of the longer linker on cell permeability and cytotoxicity ([4]; ref [26]): increases cell permeability and cytotoxicity |
| CC1(C)CC(Cl)CN(CCCCCCN2CC(Cl)CC(C)(C)C2)C1 (centres unmarked) [Compound 3] | 3.55 ± 0.37 µM |  |  |
| COC(=O)[C@H](CCCCN1CC(Cl)CC(C)(C)C1)N1CC(Cl)CC(C)(C)C1 (some centres unmarked) [Compound 4] | 5.09 ± 0.05 µM | much weaker stabilization effect |  |
| COC(=O)[C@@H](CCCCN1CC(Cl)CC(C)(C)C1)N1CC(Cl)CC(C)(C)C1 (some centres unmarked) [Compound 5] | 4.78 ± 0.71 µM | much weaker stabilization effect |  |
